Structures are written as SMILES.

Test [1] deals with Human recombinant GSK-3β (Homo sapiens (Human), UniProt P49841). The test can be described thus: Inhibition of GSK-3β (Kinase-Glo luminescent kinase assay). The following applies: 1 μM ATP, 25 μM substrate, 30 minutes at 30° C. The class given is biochemical. The method, then: Human recombinant GSK-3β was purchased from Millipore (Millipore Iberica S.A.U.) The prephosphorylated polypeptide substrate was purchased from Millipore (Millipore Iberica SAU). Kinase-Glo Luminescent Kinase Assay was obtained from Promega (Promega Biotech Iberica, SL). ATP and all other reagents were from Sigma-Aldrich. Assay buffer contained 50 mM 4-(2-hydroxyethyl)-1-piperazineethanesulfonic acid (HEPES) (pH 7.5), 1 mM ethylenediaminetetraacetic acid (EDTA), 1 mM ethylene glycol tetraacetic acid (EGTA), and 15 mM magnesium acetate. The method developed by Baki was followed [Baki et al. Assay and Drug Development Technologies 2007, 5(1),75-83] to analyze the inhibition of GSK-3β. Kinase-Glo assays were performed in assay buffer using white 96-well plates. In a typical assay, 10 μL (10 μM) of test compound (dissolved in DMSO at 1 mM concentration and diluted in advance in assay buffer to the desired concentration) and 10 μL (20 ng) of enzyme were added to each well followed by 20 μL of assay buffer containing 25 μM substrate and 1 μM adenosine triphosphate (ATP). […] After a 30 minutes incubation at 30° C., the enzymatic reaction was stopped with 40 μL of Kinase-Glo reagent. Glow-type luminescence was recorded after 10 minutes using a Fluoroskan Ascent multimode reader.
The activity is proportional to the difference of the total and consumed ATP.
For orientation: Kinase-Glo measures the ATP left after a reaction by luminescence.

Test [2] has as its system primary astrocytes and microglial cells. The test can be described thus: Nitrites measurement (Griess reaction) in LPS-stimulated primary glial cells. Particulars: compounds 10 μM for 1 hour, then LPS 10 μg/mL for 24 hours; astrocytes and microglia; potency compared with 6-amino triazinones A-C (FIGS. 2A, 2B). The class given is cell-based, rat. As to the method: Astrocytes were prepared from neonatal (P2) rat cerebral cortex, as previously described by Luna-Medina et al. [Luna-Medina, R.; Cortes-Canteli, M.; Alonso, M.; Santos, A.; Martinez, A.; Perez-Castillo, A. Regulation of inflammatory response in neural cells in vitro by thiadiazolidinones derivatives through peroxisome proliferator-activated receptor gamma activation. J. Biol. Chem. 2005, 280, 21453-21462].
Briefly, after removal of the meninges, the cerebral cortex was dissected, dissociated, and incubated with 0.25% trypsin/EDTA at 37° C. for 1 hour. After centrifugation, the pellet was washed 3 times with Hank's balanced salt solution (HBSS) (Gibco) and the cells were placed on noncoated flasks and maintained in HAMS/Dulbecco's modified eagle's medium (DMEM) (1:1) medium containing 10% of fetal bovine serum (FBS). After 15 days, the flasks were agitated on an orbital shaker for 4 hours at 240 rpm at 37° C., the supernatant was collected, centrifuged, and the cellular pellet containing the microglial cells resuspended in complete medium (HAMS/DMEM (1:1) containing 10% FBS) and seeded on uncoated 96-well plates. Cells were allowed to adhere for 2 hours, and the medium was removed to eliminate nonadherent oligodendrocytes. New fresh medium containing 10 ng/mL of granulocyte-macrophage colony-stimulating factor (GM-CSF) was added. The remaining astroglial cells adhered on the flasks were then trypsinized, collected, centrifugated, and plated onto 96-well plates with complete medium. The purity of cultures obtained by this procedure was >98% as determined by immunofluorescence with the OX42 (microglial marker) and the glial fibrillary acidic protein (GFAP, astroglial marker) antibodies.
The potential anti-inflammatory activity of the selected compounds was tested by evaluating the production of nitrites from primary cultured glial cells. Primary cultures of astrocytes and microglia were incubated with the selected compounds (10 μM) for 1 hour, and then cells were cultured for another 24 hours with a potent inflammatory agent, such as lipopolysaccharide (LPS) (10 μg/mL). LPS is able to induce nitrite production and accumulation in the culture medium, which was assayed by the standard Griess reaction. Supernatants were collected from the media and mixed with an equal volume of Griess reagent (Sigma). Samples were then incubated at rt for 15 minutes and absorbance read using a plate reader at 492/540 nm.
(Griess reagent forms a coloured azo dye with nitrite.)

For test [3], the target named is β-secretase (BACE-1) (Homo sapiens (Human), UniProt P56817). Kind of test: Inhibition of BACE-1 (fluorogenic APP-mimicking peptide substrate). The following applies: BACE-1 IC50 (μM), substrate 3 μM, 1 hour pre-incubation at rt, 15 minutes at 37° C.
Experimental: β-secretase (BACE-1, Sigma-Aldrich) inhibition studies were performed by employing a peptide mimicking APP sequence as substrate (Methoxycoumarin-[sequence]dinitrophenyl, M-2420, Bachem, Germany). The following procedure was employed: 5 μL of test compounds (or DMSO, if preparing a control well) were pre-incubated with 175 μL of enzyme (in 20 mM sodium acetate containing 3-[(3-Cholamidopropyl)dimethylammonio]-1-propanesulfonate (CHAPS) 0.1% w/v) for 1 hour at rt. The substrate (3 μM, final concentration) was then added and left to react for 15 minutes at 37° C. The fluorescence signal was read at λem=405 nm (λexc=320 nm) using a Fluoroskan Ascent. […] The fluorescence intensities with and without inhibitor were compared and the percent inhibition due to the presence of test compounds was calculated. The background signal was measured in control wells containing all the reagents, except BACE-1 and subtracted. The % inhibition due to the presence of increasing test compound concentration was calculated by the following expression: 100−(IFi/IFo×100) where IFi and IFo are the fluorescence intensities obtained for BACE-1 in the presence and in the absence of inhibitor, respectively. […] The linear regression parameters were determined and the IC50 extrapolated (GraphPad Prism 4.0, GraphPad Software Inc.).
Test [4] has as its system neurosphere cultures of primary rat neural stem cells. The test can be described thus: Neurosphere cultures, immunocytochemistry for neural markers. Type of test: cell-based. The following applies: 10 μM during a week; compared to control (FIG. 3). From the text:
Neurosphere (NS) cultures were derived from the hippocampus of adult rats and induced to proliferate using established passaging methods to achieve optimal cellular expansion according to published protocols [Ferron, S. R.; Andreu-Agullo, C.; Mira, H.; Sanchez, P.; Marques-Torrejon, M. A.; Farinas, I. A combined ex/in vivo assay to detect effects of exogenously added factors in neural stem cells. Nature Protoc. 2007, 2, 849-859]. Rats were decapitated, brains removed, and the hippocampus dissected as described [Morales-Garcia, J. A.; Luna-Medina, R.; Alfaro-Cervello, C.; Cortes-Canteli, M.; Santos, A.; Garcia-Verdugo, J. M.; Perez-Castillo, A. Peroxisome proliferator-activated receptor gamma ligands regulate neural stem cell proliferation and differentiation in vitro and in vivo. Glia 2011, 59, 293-307]. Briefly, cells were seeded into 12-well dishes and cultured in DMEM/F12 (1:1, Invitrogen) containing 10 ng/mL epidermal growth factor (EGF, Peprotech, London, UK), 10 ng/mL fibroblast growth factor (FGF, Peprotech), and B27 medium (Gibco). After 3 days in culture, NS were cultivated in the presence or absence of the indicated compounds (10 μM) during a week. After that, NS from 10-day old cultures were plated for 72 hours onto 100 μg/mL poly-L-lysine-coated coverslips in the absence of exogenous growth factors.
Neurogenesis is a crucial property for new AD-modifying drugs, since it confers the potential to increase endogenous regeneration as a repair mechanism in the damaged brain, and reduce neuronal loss and degeneration. Considering that GSK-3β inhibition is reported to regulate and increase neurogenesis [Lange, C.; Mix, E.; Frahm, J.; Glass, A.; Muller, J.; Schmitt, O.; Schmole, A. C.; Klemm, K.; Ortinau, S.; Hubner, R.; Frech, M. J.; Wree, A.; Rolfs, A. Small molecule GSK-3 inhibitors increase neurogenesis of human neural progenitor cells. Neurosci. […]

Chain of Human recombinant GSK-3β (P49841 whole entry): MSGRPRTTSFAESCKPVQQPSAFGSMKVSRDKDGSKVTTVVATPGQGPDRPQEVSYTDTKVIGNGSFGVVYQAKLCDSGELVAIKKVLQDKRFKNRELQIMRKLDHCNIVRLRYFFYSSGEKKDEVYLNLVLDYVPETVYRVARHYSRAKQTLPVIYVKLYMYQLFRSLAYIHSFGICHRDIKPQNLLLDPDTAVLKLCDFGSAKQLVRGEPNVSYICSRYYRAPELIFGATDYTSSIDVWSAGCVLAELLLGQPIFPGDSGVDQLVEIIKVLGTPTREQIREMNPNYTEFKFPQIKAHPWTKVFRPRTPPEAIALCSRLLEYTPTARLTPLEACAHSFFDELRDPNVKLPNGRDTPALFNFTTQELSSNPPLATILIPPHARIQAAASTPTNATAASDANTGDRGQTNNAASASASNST
Chain of β-secretase (BACE-1) (P56817 46-501): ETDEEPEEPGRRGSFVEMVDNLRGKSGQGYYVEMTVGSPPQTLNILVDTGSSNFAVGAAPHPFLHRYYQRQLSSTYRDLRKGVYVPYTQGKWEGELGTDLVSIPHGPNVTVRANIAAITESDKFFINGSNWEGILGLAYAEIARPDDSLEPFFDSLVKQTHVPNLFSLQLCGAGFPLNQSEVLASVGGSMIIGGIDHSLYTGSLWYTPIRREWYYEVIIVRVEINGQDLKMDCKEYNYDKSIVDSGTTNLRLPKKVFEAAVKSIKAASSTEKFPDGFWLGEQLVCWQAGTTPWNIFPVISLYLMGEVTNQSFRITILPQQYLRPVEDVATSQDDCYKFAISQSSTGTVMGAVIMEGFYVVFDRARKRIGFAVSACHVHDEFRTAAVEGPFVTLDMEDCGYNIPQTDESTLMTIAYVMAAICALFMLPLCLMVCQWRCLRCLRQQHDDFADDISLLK

The term IC50 denotes the point on the concentration scale where inhibition reaches its midpoint. For the compound `O=C1NC(Nc2ccccc2)=NC(c2ccc(F)cc2)N1` (centres unmarked) [Example 9, 4-(4-fluorophenyl)-6-(phenylamino)-3,4-dihydro-1,3,5-triazin-2(1H)-one], the IC50 in test [1] turned out to be 6.93 ± 0.14 µM. Moreover, the “reduction of LPS-induced nitrite production” value in test [2] is on record as “higher potency”.
As for `CCNC1=NC(c2ccccc2C)NC(=O)N1` (centres unmarked) [Example 2, 6-(ethylamino)-4-(o-tolyl)-3,4-dihydro-1,3,5-triazin-2(1H)-one], the IC50 in test [1] stood at 40.7 ± 2.7 µM; in test [3], 50.3 ± 6.61 µM.
On to `NC1=NC(c2ccc(F)cc2)NC(=O)N1` (centres unmarked) [Compound A, reference compound], for which the “number of MAP-2 positive cells (mature neuronal marker)” value in test [4] is given as “only a marginal increase”.

The record behind these values is US9975861B2, “Dual inhibitor compounds for use in the treatment of neurodegenerative disorders and alzheimer's disease” (FONDAZIONE ISTITUTO ITALIANO DI TECNOLOGIA, priority 2014, dated 2018).
